Results as given in US20260157993A1, “USE OF 2-METHYLOXOLANE FOR FEEDING OVIPAROUS ANIMALS” (ECOXTRACT, priority 2022, published 2026).

How the values were obtained:
[1] = tested on: rats; details: 3-month ingestion; cited from earlier work
[2] = tested on: domestic laying hens; assay: Egg production of domestic laying hens after oral administration in capsules; type: in vivo, chicken; details: for Number of eggs (average number of eggs per day laid by 4 chickens): oral capsules, control 3.5
Procedure: In this example, domestic laying hens have been divided into four groups: • the 4 chickens of the control group have not ingested 2-methyloxolane. • the 12 chickens of the N×1 group have ingested pure liquid 2-methyloxolane in capsules. The ingested dose of pure liquid 2-methyloxoane was 3.18 mg/kg of the chicken/day, i.e. 40 mg/kg in the daily ration, • the 12 chickens of the N×5 group have ingested pure liquid 2-methyloxolane in capsules. The ingested dose of pure liquid 2-methyloxoane was 15.88 mg/kg of the chicken/day, i.e. 200 mg/kg in the daily ration, and • the 12 chickens of the N×10 group have ingested pure liquid 2-methyloxolane in capsules. The ingested dose of pure liquid 2-methyloxoane was 31.77 mg/kg of the chicken/day, i.e. 400 mg/kg in the daily ration (the group N×10). The egg production of each group has been monitored in order to statistically validate the significance of the effect of an oral administration of 2-methyloxolane on egg production. The statistical processing is as follows: A one-factor analysis of variance (ANOVA) has been carried out using the XLSTAT 2020.2.1 software on MS EXCEL 16.0.15225. […] In case of a significant difference between the averages, a Student's t-test with a level of significance of 5% will be applied for the comparison in pairs using the same software. In total, 1,115 eggs have been counted throughout the observations. Table 1 hereinbelow presents the average of the number of eggs per day laid by 4 chickens as a function of their basking group.

[3] = tested on: human; details: EFSA Opinion of Mar. 15, 2022; cited from earlier work
[4] = tested on: average human of 50 kg; details: ICHQ3C R8, solvent to be limited; cited from earlier work

Row | SMILES | Dose with no undesirable effect observed [1] [mg/kg body weight per day] | Effect of oral administration on number of laid eggs per chicken ([2]; 40 to 400 mg/kg in daily ration, no apparent dose effect, ANOVA and Student's t-test, 5% level) | Number of eggs (average number of eggs per day laid by 4 chickens) ([2]; N × 1 group: 3.18 mg/kg of the chicken/day, i.e. 40 mg/kg in the daily ration) | Number of eggs (average number of eggs per day laid by 4 chickens) ([2]; N × 5 group: 15.88 mg/kg of the chicken/day, i.e. 200 mg/kg in the daily ration) | Number of eggs (average number of eggs per day laid by 4 chickens) ([2]; N × 10 group: 31.77 mg/kg of the chicken/day, i.e. 400 mg/kg in the daily ration) | More eggs laid per week than animal whose feed is not supplemented ([2]; feed supplemented by the dietary supplement comprising 2-methyloxolane) | Human exposure limit recommended by EFSA [3] | Acceptable Daily Dose [4] [mg]
1 | CC1CCCO1 (centres unmarked) [2-methyloxolane] | 250 | significantly increases | 3.9 | 3.9 | 3.9 | up to 14% | 1 mg/kg human body weight per day | –
2 | CCCCCC [hexane] | – | – | – | – | – | – | – | 2.9
